Source: patent US10981875B2, “Quinolone-based compounds with anticancer activity” (Regents of the University of Minnesota, priority 2016, dated 2021)
Like-named read-outs stand apart in the source and are kept apart here. Blank lines part the entries; values can stand above or below the molecule they belong to.

Assays:
[1] = test system: colon (HT-29) and leukemia (K-562) cell lines; assay: MTT anti-proliferative assay; assay type: cell-based; details: HT-29 and K-562
Method: An MTT assay was performed with 277 and with the following compounds:
[drawing 68] against colon (HT-29) and leukemia (K-562) cell lines to determine their in vitro anti-proliferative activities.

human topoisomerase I = target: T1, human topoisomerase I (Homo sapiens, UniProt P11387); assay: Topoisomerase I relaxation assay (human); assay type: biochemical
T1 sequence (P11387 1-765): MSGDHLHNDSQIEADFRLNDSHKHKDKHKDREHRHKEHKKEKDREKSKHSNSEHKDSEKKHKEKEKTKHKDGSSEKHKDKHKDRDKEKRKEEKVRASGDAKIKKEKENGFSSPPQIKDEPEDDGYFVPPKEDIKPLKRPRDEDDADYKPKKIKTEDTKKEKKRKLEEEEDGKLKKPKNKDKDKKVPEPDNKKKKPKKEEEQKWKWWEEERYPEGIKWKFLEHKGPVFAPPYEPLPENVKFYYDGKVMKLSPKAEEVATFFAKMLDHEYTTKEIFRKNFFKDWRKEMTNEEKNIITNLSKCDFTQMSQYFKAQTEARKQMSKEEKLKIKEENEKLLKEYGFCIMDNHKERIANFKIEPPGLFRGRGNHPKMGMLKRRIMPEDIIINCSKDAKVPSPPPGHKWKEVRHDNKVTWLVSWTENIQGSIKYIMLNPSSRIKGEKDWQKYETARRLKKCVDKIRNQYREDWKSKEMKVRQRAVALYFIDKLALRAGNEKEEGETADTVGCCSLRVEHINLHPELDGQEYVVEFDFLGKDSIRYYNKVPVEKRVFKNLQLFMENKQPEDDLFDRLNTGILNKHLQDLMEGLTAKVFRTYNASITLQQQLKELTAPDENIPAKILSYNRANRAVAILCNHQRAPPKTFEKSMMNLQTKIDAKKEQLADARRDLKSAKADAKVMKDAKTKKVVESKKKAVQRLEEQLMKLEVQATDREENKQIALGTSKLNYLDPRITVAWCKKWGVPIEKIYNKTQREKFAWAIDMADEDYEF

[2] = In vivo toxicity study (maximum tolerated dose); details: daily intraperitoneal, up to 30 mg/kg for 3 weeks
Method: (§1) In vivo toxicity studies were performed to establish the maximum tolerated dose of 217 and 227 in mice. […] A proof of concept efficacy study was also conducted in mice with 217 and 227. Based on the in vitro susceptibility to 217 and 227, and the availability of the established xenograft models, a colon cancer (HT-29) xenograft model was used.

[3] = test system: colon cancer (HT-29) xenograft; assay: Colon cancer (HT-29) xenograft efficacy study; assay type: in vivo, mice; details: 3-week treatment, FIG. 2
Method: as §1

60 cancer cell lines = assay: NCI 60 DTP Human Tumor Cell Line Screen; assay type: cell-based; details: for GI50: Homo sapiens, against the 60 cancer cell lines; for comparison of GI50 and LD50 values with etoposide (NCI's COMPARE program): majority of the 60 cancer cell lines; for mean growth: single dose (10 μM) screening
Source text: Both 217 and 227 were submitted to the NCI for the 60 DTP Human Tumor Cell Line Screen.

[4] = test system: mammalian topoisomerase I; assay: Topoisomerase I poisoning (DNA cleavage); assay type: biochemical
Source text: (§2) Topoisomerase poisoning results in the accumulation of covalent topoisomerase-DNA complexes, which can be detected as the generation of nicked and/or linear DNA in DNA cleavage assays. Poisoning of human topoisomerase II generate double-strand breaks that lead to the development of therapy-related acute myeloid leukemia.

human topoisomerase II [5] = target: T2, human topoisomerase II (Homo sapiens, UniProt P11388); assay: Topoisomerase II decatenation assay; assay type: biochemical
human topoisomerase II [6] = target: T2, human topoisomerase II; assay: DNA cleavage assay (topoisomerase II poisoning); assay type: biochemical; details: various concentrations; FIG. 1
Source text: as §2

calf topoisomerase I = target: T3, calf topoisomerase I (Bos taurus, UniProt F1MN93); assay: Topoisomerase I relaxation assay (calf); assay type: biochemical; details: Table 1, calf enzyme, read-out: Topo I (c) IC50 (converted)
T3 sequence (F1MN93 1-767): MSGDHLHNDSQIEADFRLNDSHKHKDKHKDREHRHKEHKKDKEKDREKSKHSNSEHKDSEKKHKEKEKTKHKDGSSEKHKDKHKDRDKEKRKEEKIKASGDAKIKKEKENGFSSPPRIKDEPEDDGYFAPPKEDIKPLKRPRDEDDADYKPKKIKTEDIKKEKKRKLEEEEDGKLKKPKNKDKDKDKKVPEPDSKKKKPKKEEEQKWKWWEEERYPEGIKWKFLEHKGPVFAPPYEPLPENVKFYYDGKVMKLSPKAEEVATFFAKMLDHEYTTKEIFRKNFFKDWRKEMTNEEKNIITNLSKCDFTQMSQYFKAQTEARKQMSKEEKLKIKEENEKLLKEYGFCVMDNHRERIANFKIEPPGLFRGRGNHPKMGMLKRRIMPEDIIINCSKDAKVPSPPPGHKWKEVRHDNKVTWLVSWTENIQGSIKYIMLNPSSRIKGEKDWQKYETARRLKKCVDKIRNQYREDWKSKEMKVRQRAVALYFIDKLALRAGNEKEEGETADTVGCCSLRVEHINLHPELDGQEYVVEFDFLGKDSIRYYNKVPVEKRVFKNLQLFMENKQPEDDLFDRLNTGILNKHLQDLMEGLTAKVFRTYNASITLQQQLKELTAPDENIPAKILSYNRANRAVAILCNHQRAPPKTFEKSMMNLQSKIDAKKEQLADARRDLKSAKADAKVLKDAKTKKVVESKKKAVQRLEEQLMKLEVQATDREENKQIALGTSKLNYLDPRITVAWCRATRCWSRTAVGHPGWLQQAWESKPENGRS

E. coli DNA gyrase = E. coli DNA gyrase (Escherichia coli, UniProt P0AES4+P0AES6); assay: DNA gyrase supercoiling assay; assay type: biochemical; details: Table 1
Aqueous solubility = assay type: physicochemical
[7] = Table 2, relaxation assay, read-out: Topo I IC50
[8] = Table 1, decatenation assay, read-out: Topo II IC50
[9] = Table 2, decatenation assay, read-out: Topo II IC50
[10] = read-out: IC50 human topoisomerase II in the decatenation assay
[11] = Table 1, human enzyme, relaxation assay, read-out: Topo I (h) IC50
[12] = read-out: IC50 human topoisomerase I in the relaxation assay

T2 sequence (P11388 whole entry): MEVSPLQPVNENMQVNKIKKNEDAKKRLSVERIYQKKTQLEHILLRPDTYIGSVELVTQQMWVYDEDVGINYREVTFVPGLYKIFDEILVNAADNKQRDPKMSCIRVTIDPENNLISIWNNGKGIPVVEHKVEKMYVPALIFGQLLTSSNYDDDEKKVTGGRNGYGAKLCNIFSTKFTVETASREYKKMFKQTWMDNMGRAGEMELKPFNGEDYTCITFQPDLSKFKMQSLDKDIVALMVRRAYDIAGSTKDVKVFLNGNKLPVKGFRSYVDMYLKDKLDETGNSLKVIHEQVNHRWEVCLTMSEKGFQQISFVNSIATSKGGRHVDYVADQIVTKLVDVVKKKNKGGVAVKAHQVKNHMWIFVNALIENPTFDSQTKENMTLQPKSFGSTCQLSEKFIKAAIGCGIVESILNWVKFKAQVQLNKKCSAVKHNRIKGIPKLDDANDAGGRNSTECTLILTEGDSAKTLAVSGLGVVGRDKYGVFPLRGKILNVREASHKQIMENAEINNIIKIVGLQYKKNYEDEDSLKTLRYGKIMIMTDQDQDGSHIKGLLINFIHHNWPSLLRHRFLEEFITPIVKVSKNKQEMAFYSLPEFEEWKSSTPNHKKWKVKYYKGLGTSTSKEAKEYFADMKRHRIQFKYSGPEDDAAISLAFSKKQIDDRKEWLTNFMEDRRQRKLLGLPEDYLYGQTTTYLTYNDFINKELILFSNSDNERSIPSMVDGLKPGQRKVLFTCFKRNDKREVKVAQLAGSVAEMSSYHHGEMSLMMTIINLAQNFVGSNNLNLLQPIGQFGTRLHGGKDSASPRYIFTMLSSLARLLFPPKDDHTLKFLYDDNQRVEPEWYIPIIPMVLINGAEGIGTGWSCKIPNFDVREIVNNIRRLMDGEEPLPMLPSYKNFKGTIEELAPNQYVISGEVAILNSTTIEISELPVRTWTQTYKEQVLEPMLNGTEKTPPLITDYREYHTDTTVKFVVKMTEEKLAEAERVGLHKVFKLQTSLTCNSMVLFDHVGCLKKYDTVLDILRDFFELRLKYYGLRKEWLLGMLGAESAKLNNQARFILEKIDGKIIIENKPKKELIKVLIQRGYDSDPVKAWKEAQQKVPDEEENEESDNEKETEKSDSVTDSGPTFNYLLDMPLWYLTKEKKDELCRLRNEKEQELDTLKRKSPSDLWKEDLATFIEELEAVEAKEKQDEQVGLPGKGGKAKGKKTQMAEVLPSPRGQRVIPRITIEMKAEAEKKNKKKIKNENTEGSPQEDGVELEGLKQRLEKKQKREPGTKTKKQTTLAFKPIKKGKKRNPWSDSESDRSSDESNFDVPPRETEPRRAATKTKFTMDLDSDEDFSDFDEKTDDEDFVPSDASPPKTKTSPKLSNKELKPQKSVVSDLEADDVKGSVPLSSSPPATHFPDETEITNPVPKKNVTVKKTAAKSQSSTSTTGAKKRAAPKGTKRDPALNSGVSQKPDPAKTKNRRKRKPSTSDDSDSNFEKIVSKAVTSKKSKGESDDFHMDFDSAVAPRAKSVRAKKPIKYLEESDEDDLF

Structure (SMILES): NC[C@@H]1CCN(c2cc3c(cc2F)c(=O)c(C(=O)O)cn3Cc2ccc(-c3ccccc3)cc2)C1 [Compound 065]
- anti-proliferative activity, fold higher than that of 217 [1]: 2-5 fold

- IC50 (human topoisomerase I; [7]): 44.4 ± 0.8 µM
Structure (SMILES): COc1c(N2C[C@@H]3CCCN[C@@H]3C2)c(F)cc2c(=O)c(C(=O)O)cn(Cc3ccc(-c4ccccc4)cc3)c12 [Compound 205]

- IC50 (human topoisomerase I; [7]): 54.2 ± 3.2 µM
Structure (SMILES): COc1c(N2CCNCC2)c(F)cc2c(=O)c(C(=O)O)cn(Cc3ccc(-c4ccccc4)cc3)c12 [Compound 207]

- IC50 (human topoisomerase I; [7]): 127.9 ± 0.8 µM
Structure (SMILES): COc1c(N2C[C@@H]3CCCN[C@@H]3C2)c(F)cc2c(=O)c(C(=O)O)cn(Cc3ccc4ccccc4c3)c12 [Compound 213]

- IC50 (human topoisomerase I; [7]): 59 ± 2.9 µM
Structure (SMILES): NC[C@@H]1CCN(c2cc3c(cc2F)c(=O)n(N)c(=O)n3Cc2ccc3ccccc3c2)C1 [Compound 213a]

- IC50 (human topoisomerase I; [7]): 132 ± 3.5 µM
Structure (SMILES): COc1c(N2CCNCC2)c(F)cc2c(=O)c(C(=O)O)cn(Cc3ccc4ccccc4c3)c12 [Compound 215]

- IC50 (human topoisomerase I; [7]): 25.9 ± 5.4 µM
Structure (SMILES): NC[C@@H]1CCN(c2cc3c(cc2F)c(=O)n(N)c(=O)n3Cc2ccc(-c3ccccc3)cc2)C1 [Compound 215a]

Structure (SMILES): COc1c(N2CC[C@@H](CN)C2)c(F)cc2c(=O)c(C(=O)O)cn(Cc3ccc(-c4ccccc4)cc3)c12 [Compound 217, (S)-1-([1,1′-biphenyl]-4-ylmethyl)-7-(3-(aminomethyl)pyrrolidin-1-yl)-6-fluoro-8-methoxy-4-oxo-1,4-dihydroquinoline-3-carboxylic acid]
- effect on animal weight gain [2]: did not have any significant effect on animal weight gain
- tolerability [2]: well-tolerated
- inhibition of colon cancer proliferation in vivo [3]: inhibited the proliferation of colon cancer in vivo as well as fluorouracil (5-FU)
- GI50 (60 cancer cell lines): 1.9 µM
- comparison of GI50 and LD50 values with etoposide (NCI's COMPARE program) (60 cancer cell lines): significantly more effective than etoposide
- mean growth (60 cancer cell lines): 40.3%
- poisoning of mammalian topoisomerase I [4]: did not poison mammalian topoisomerase I
- IC50 (human topoisomerase II [5]; [8]): 128 ± 4.7 µM
- IC50 (human topoisomerase II [5]; [9]): 128 ± 4.7 µM
- IC50 (human topoisomerase II [5]; [10]): 128 µM
- IC50 (human topoisomerase I; [11]): 26 ± 0.5 µM
- IC50 (human topoisomerase I; [12]): 26.5 µM
- increase in the amounts of linear DNA (human topoisomerase II [6]): did not detect any significant increase (two-fold or less)
- IC50 (calf topoisomerase I): 32.2 µM
- IC50 (E. coli DNA gyrase): 1370 ± 10.1 µM
- aqueous solubility (Aqueous solubility): limited aqueous solubility

Structure (SMILES): COc1c(N2CC[C@@H](CN)C2)c(F)cc2c(=O)c(C(=O)O)cn(Cc3ccc4ccccc4c3)c12 [Compound 227, (S)-7-(3-(aminomethyl)pyrrolidin-1-yl)-6-fluoro-8-methoxy-1-(naphthalen-2-ylmethyl)-4-oxo-1,4-dihydroquinoline-3-carboxylic acid]
- effect on animal weight gain [2]: did not have any significant effect on animal weight gain
- tolerability [2]: well-tolerated
- inhibition of colon cancer proliferation in vivo [3]: exhibited activity but was not as effective as 217
- GI50 (60 cancer cell lines): 3.1 µM
- comparison of GI50 and LD50 values with etoposide (NCI's COMPARE program) (60 cancer cell lines): significantly more effective than etoposide
- mean growth (60 cancer cell lines): 44.1%
- poisoning of mammalian topoisomerase I [4]: did not poison mammalian topoisomerase I
- IC50 (human topoisomerase II [5]; [8]): 165 ± 20.2 µM
- IC50 (human topoisomerase II [5]; [9]): 165 ± 20.2 µM
- IC50 (human topoisomerase II [5]; [10]): 165 µM
- IC50 (human topoisomerase I; [11]): 43.7 ± 0.6 µM
- IC50 (human topoisomerase I; [12]): 43.1 µM
- increase in the amounts of linear DNA (human topoisomerase II [6]): did not detect any significant increase (two-fold or less)
- IC50 (calf topoisomerase I): 66.6 µM
- IC50 (E. coli DNA gyrase): > 200 µM
- aqueous solubility (Aqueous solubility): limited aqueous solubility
